Reference: US20240000750A1, “METHOD FOR PREPARING CRYSTALLINE PARTICLES OF 1-(3-CYANO-1-ISOPROPYL-INDOLE-5-YL)PYRAZOLE-4-CARBOXYLIC ACID, AND PHARMACEUTICAL COMPOSITION COMPRISING SAME” (LG CHEM, LTD., priority 2020, published 2024)

Tests used:
Assay type in all cases: physicochemical
[1] = Particle size distribution of crystalline particles, wet method, laser diffraction particle size analyzer
Protocol: The volume average particle distribution and particle size distribution of the crystalline particles prepared in Preparation Examples, Examples and Comparative Examples were measured by a wet method using a laser diffraction particle size analyzer.
It can be said that the particle size distribution is better as the values of DV10/DV50 and DV50/DV90 used as indicators are larger. Here, DV10, DV50, and DV90 mean particle diameters of particles corresponding to 10%, 50%, and 90% of the total number of particles, respectively, when the measured particles are arranged in order from smallest to largest in particle size.

[2] = Bulk density and tapped density of crystalline particles (flowability: Carr index, Hausner ratio)
Protocol: The tapped density and bulk density were analyzed to analyze flowability and cohesiveness. tapped density means the changed volume when the container is tapped after packing the powder, which means that the voids between particles are reduced. In addition, the porosity can be confirmed by checking the changes in bulk density (apparent density) and tapped density. In general, the flowability and cohesiveness of the granular powder were evaluated using Carr index (CI) (Carr, 1965) and Hausner ratio (HR) (Hausner, 1967).
The bulk density and tapped density of crystalline particles prepared according to Preparation Examples, Examples and Comparative Examples were measured. The bulk density is the volume when about 50 g of granular powder is put into the measuring cylinder, and the tapped density is the volume when there is no further change in volume after lightly tapping the measuring cylinder on the floor at a constant height 100 times. The bulk density refers to the volume occupied by a certain mass of powder, which refers to the sum of the volume of the powder and the volume of voids between particles as the total volume.
The flowability and cohesiveness of the granular powder were calculated by the Carr index of Equation (3) and the Hausner ratio of Equation (4) using the bulk density and tapped density measured above according to the method of Jinapong et al (2008). […]

[3] = Solubility in organic solvents and water

SMILES	Particle size distribution (in words) [1]	Flowability and cohesiveness (in words) [2]	Solubility [3]
CC(C)n1cc(C#N)c2cc(-n3cc(C(=O)O)cn3)ccc21 [Synthesis Example 1-4, 1-(3-cyano-1-isopropyl-indol-5-yl)pyrazole-4-carboxylic acid]	very good	very good	–
CC(C)n1cc(C#N)c2cc(-n3cc(C(=O)O)cn3)ccc21 [compound of Formula 1, 1-(3-cyano-1-isopropyl-indol-5-yl)pyrazole-4-carboxylic acid]	–	–	very low
